Test results reported in patent US20230243822A1, “MOLECULAR DISEASE PROFILE AND USE THEREOF FOR MONITORING AND TREATING RHEUMATAOID ARTHRITIS” (JANSSEN BIOTECH, INC., priority 2020, published 2023).

How the values were obtained:
14-analyte M-DP panel = assay: Pharmacodynamic M-DP score, 14-analyte panel (SomaLogic SOMAscan), clinical studies in RA; format: in vivo, human; conditions: for GMean M-DP scores, change: week 4 or latest time point evaluated (weeks 28, 28, and 12, respectively)
Source text: (§1) Serum samples and data from eight interventional clinical studies with seven different active treatments for RA or placebo treatment were obtained and analyzed: sirukumab (anti-IL-6) and placebo treatments in SIRROUND-M (NCT01689532; Takeuchi T, et al. Arthritis Res Ther. 2018 Mar. 7; 20(1): 42), SIRROUND-D (NCT01604343; Takeuchi T, et al. Ann Rheum Dis. 2017 Dec.; 76(12): 2001-2008), and SIRROUND-T (NCT01606761; Aletaha D, et al. Lancet. 2017 Mar. 25; 389(10075): 1206-1217); sirukumab and adalimumab (anti-TNF-alpha) treatments in SIRROUND-H (NCT02019472; Taylor PC, et al. Ann Rheum Dis. 2018 May; 77(5): 658-666); golimumab (anti-TNF-alpha) treatment in GO-FURTHER (NCT00973479; Weinblatt ME, et al. Ann Rheum Dis. 2013 March; 72(3): 381-9); guselkumab (anti-IL-23p19), ustekinumab (anti-IL-12/IL-23p40), and placebo treatments in CNTO1275ARA2001 (NCT01645280; Cox JD, et al. […]); JNJ-40346527 (colony-stimulating factor-1 inhibitor) and placebo treatments in 40346527ARA2001 (NCT01597739; Genovese MC, et al. J Rheumatol. 2015 October; 42(10): 1752-60). Plasma samples were obtained from the RA-MAP TACERA study (Cope AP, et al. Nat Rev Rheumatol. 2018 January; 14(1): 53-60) before (baseline) and 6-months after initiation of conventional synthetic disease-modifying anti-rheumatic drugs (csDMARDs). Details of treatment dose groups, concomitant methotrexate use, and previous experience with csDMARDs and biologics are reported in Table 1. The studies were conducted in accordance with the Declaration of Helsinki. The study protocols were reviewed and approved by an independent ethics committee or institutional review board for each study center. Written informed consent was obtained from all patients before study entry. Additional study details and patient characteristics are available in the referenced publications for each study. For SIRROUND-D and SIRROUND-T studies, sets of serum samples from demographically-matched healthy controls were obtained from commercial sources (BioIVT, Westbury, N.Y.).
(§2) Serum samples from baseline (week 0) and the time points indicated in Table 1 were provided for quantification of 1189 serum analytes using the SomaScan v3.1 platform (SomaLogic, Boulder, Colo.; www.somalogic.com), with the exception of RA-MAP TACERA, for which plasma samples were analyzed for 1301 analytes using the SomaScan v3.2 platform. For some studies, a redacted dataset reporting data for a subset of the analytes was obtained. Relative fluorescence unit (RFU) data were sequentially normalized for hybridization controls (internal standards per samples), median signal across all samples (assumes same total protein concentration across sample set), and calibration controls (common sample standards across analysis plates). Samples failed quality control standards defined by Somalogic were excluded from analyses. The normalized RFU values were log2-transformed for subsequent analyses.
(§3) Changes in analyte expression levels were calculated for individual samples as the log2 transform of the ratio of the analyte level at the indicated time point (visit level) over the analyte level at baseline (baseline level) for a given subject, i.e., log 2(visit level/baseline level). Changes in RA disease-associated analytes per sample were summarized using a pharmacodynamic (PD) molecular disease profile (M-DP) score, defined as the median value of the log 2(visit level/baseline level) values for analytes in the defined M-DP analyte set. […] PD M-DP scores in the log 2(visit level/baseline level) scale can be transformed to percent change from baseline, using the transformation: (2^M-DP score−1)×100%.
Statistical analyses were performed on log2-transformed data, for either normalized Relative fluorescence unit (RFU) datasets or within-subject fold/baseline datasets. Significance of differences between groups was evaluated using General Linear Models, with t-tests when comparing two groups. […]

[1] = test system: 4-analyte M-DP panel (CRP, CXCL10, CXCL13, SAA); assay: Pharmacodynamic M-DP score, 4-analyte panel CRP, CXCL10, CXCL13, SAA (SOMAscan), clinical studies in RA; format: in vivo, human
Source text: as §1, §2, §3
In selecting the best minimal set of analytes that performs similarly to the full 14-analyte set, analyte sets that results in significant associations between DAS28-CRP EULAR good vs. no response with p<0.05 for each study were prioritized (Table 4). […]

RA patients = conditions: RA patients; cited from earlier work
[2] = SIRROUND-H, score at week 4, sirukumab SC 50 mg q4w or adalimumab SC 40 mg q2w, response at week 24
[3] = 4-analyte, SIRROUND-H, score at week 4, sirukumab SC 50 mg q4w or adalimumab SC 40 mg q2w, response at week 24
[4] = 40346527ARA2001, score at week 4, oral 100 mg BID, response at week 12
[5] = 40346527ARA2001, score at week 12, oral 100 mg BID, response at week 12
[6] = 4-analyte, 40346527ARA2001, score at week 4, oral 100 mg BID, response at week 12
[7] = 4-analyte, 40346527ARA2001, score at week 12, oral 100 mg BID, response at week 12
[8] = CNTO1275ARA2001, score at week 4, ustekinumab SC 90 mg or guselkumab SC 50 or 200 mg, response at week 24
[9] = CNTO1275ARA2001, score at week 28, ustekinumab SC 90 mg or guselkumab SC 50 or 200 mg, response at week 24
[10] = 4-analyte, CNTO1275ARA2001, score at week 4, ustekinumab SC 90 mg or guselkumab SC 50 or 200 mg, response at week 24
[11] = 4-analyte, CNTO1275ARA2001, score at week 28, ustekinumab SC 90 mg or guselkumab SC 50 or 200 mg, response at week 24

Compound: adalimumab [reference compound]
- M-DP score decrease (14-analyte M-DP panel; SIRROUND-H, 4-week treatment, adalimumab SC 40 mg q2w): 12%
- M-DP score mean ± SD, All treated (14-analyte M-DP panel; SIRROUND-H, score at week 4, sirukumab SC 50 mg q4w or adalimumab SC 40 mg q2w): −0.18 ± 0.33 log2 (fold/baseline)
- M-DP score mean difference ± SD, Good vs. No (14-analyte M-DP panel; [2]): −0.06 ± 0.33 log2 (fold/baseline)
- M-DP score mean ± SD, DAS28-CRP response group Good (14-analyte M-DP panel; [2]): −0.22 ± 0.37 log2 (fold/baseline)
- M-DP score mean ± SD, DAS28-CRP response group Moderate (14-analyte M-DP panel; [2]): −0.17 ± 0.33 log2 (fold/baseline)
- M-DP score mean ± SD, DAS28-CRP response group No (14-analyte M-DP panel; [2]): −0.14 ± 0.26 [23] * log2 (fold/baseline)
- M-DP score mean ± SD, All treated ([1]; 4-analyte, SIRROUND-H, score at week 4, sirukumab SC 50 mg q4w or adalimumab SC 40 mg q2w): −0.43 ± 0.53 log2 (fold/baseline)
- M-DP score mean difference ± SD, Good vs. No [1, 3]: −0.29 ± 0.45 (0.0217) log2 (fold/baseline)
- M-DP score mean ± SD, DAS28-CRP response group Good [1, 3]: −0.58 ± 0.50 log2 (fold/baseline)
- M-DP score mean ± SD, DAS28-CRP response group Moderate [1, 3]: −0.39 ± 0.59 log2 (fold/baseline)
- M-DP score mean ± SD, DAS28-CRP response group No [1, 3]: −0.29 ± 0.37 log2 (fold/baseline)
- M-DP score decrease ([1]; 4-analyte, adalimumab, week 4): 26%
- M-DP score effect size (decrease below zero) ([1]; 4-analyte, week 4): 0.8 standard deviations

Compound: CC1(C)CC=C(c2nc(C3CC(C)(C)OC(C)(C)C3)ccc2NC(=O)c2nc(C#N)c[nH]2)CC1 [JNJ-40346527, reference compound]
- M-DP score mean ± SD, All treated (14-analyte M-DP panel; 40346527ARA2001, score at week 4, oral 100 mg BID): −0.08 ± 0.27 log2 (fold/baseline)
- M-DP score mean difference ± SD, Good vs. No (14-analyte M-DP panel; [4]): 0.08 ± 0.52 log2 (fold/baseline)
- M-DP score mean ± SD, DAS28-CRP response group Good (14-analyte M-DP panel; [4]): 0.29 ± 0.42 log2 (fold/baseline)
- M-DP score mean ± SD, DAS28-CRP response group Moderate (14-analyte M-DP panel; [4]): −0.05 ± 0.48 log2 (fold/baseline)
- M-DP score mean ± SD, DAS28-CRP response group No (14-analyte M-DP panel; [4]): −0.09 ± 0.54 [23] log2 (fold/baseline)
- M-DP score mean ± SD, All treated (14-analyte M-DP panel; 40346527ARA2001, score at week 12, oral 100 mg BID): −0.13 ± 0.33 log2 (fold/baseline)
- M-DP score mean ± SD, DAS28-CRP response group Good (14-analyte M-DP panel; [5]): −0.50 ± 0.61 log2 (fold/baseline)
- M-DP score mean ± SD, DAS28-CRP response group Moderate (14-analyte M-DP panel; [5]): −0.07 ± 0.55 log2 (fold/baseline)
- M-DP score mean ± SD, DAS28-CRP response group No (14-analyte M-DP panel; [5]): 0.18 ± 0.50 [22] log2 (fold/baseline)
- GMean M-DP scores, change (14-analyte M-DP panel): not decreased
- M-DP score mean ± SD, All treated ([1]; 4-analyte, 40346527ARA2001, score at week 4, oral 100 mg BID): −0.03 ± 0.49 log2 (fold/baseline)
- M-DP score mean difference ± SD, Good vs. No [1, 6]: 0.34 ± 0.52 (0.1581) log2 (fold/baseline)
- M-DP score mean ± SD, DAS28-CRP response group Good [1, 6]: −0.29 ± 0.42 log2 (fold/baseline)
- M-DP score mean ± SD, DAS28-CRP response group Moderate [1, 6]: −0.05 ± 0.48 log2 (fold/baseline)
- M-DP score mean ± SD, DAS28-CRP response group No [1, 6]: −0.09 ± 0.54 log2 (fold/baseline)
- M-DP score mean ± SD, All treated ([1]; 4-analyte, 40346527ARA2001, score at week 12, oral 100 mg BID): −0.01 ± 0.56 log2 (fold/baseline)
- M-DP score mean difference ± SD, Good vs. No [1, 7]: −0.68 ± 0.52 (0.0079) log2 (fold/baseline)
- M-DP score mean ± SD, DAS28-CRP response group Good [1, 7]: −0.50 ± 0.61 log2 (fold/baseline)
- M-DP score mean ± SD, DAS28-CRP response group Moderate [1, 7]: −0.07 ± 0.55 log2 (fold/baseline)
- M-DP score mean ± SD, DAS28-CRP response group No [1, 7]: 0.18 ± 0.50 log2 (fold/baseline)
- clinical efficacy in the underlying clinical studies (RA patients): not clinically efficacious

Compound: ustekinumab [reference compound]
- M-DP score mean ± SD, All treated (14-analyte M-DP panel; CNTO1275ARA2001, score at week 4, ustekinumab SC 90 mg or guselkumab SC 50 or 200 mg): −0.08 ± 0.34 log2 (fold/baseline)
- M-DP score mean difference ± SD, Good vs. No (14-analyte M-DP panel; [8]): −0.32 ± 0.32 log2 (fold/baseline)
- M-DP score mean ± SD, DAS28-CRP response group Good (14-analyte M-DP panel; [8]): −0.24 ± 0.34 log2 (fold/baseline)
- M-DP score mean ± SD, DAS28-CRP response group Moderate (14-analyte M-DP panel; [8]): −0.04 ± 0.29 log2 (fold/baseline)
- M-DP score mean ± SD, DAS28-CRP response group No (14-analyte M-DP panel; [8]): 0.08 ± 0.31 [31] log2 (fold/baseline)
- M-DP score mean ± SD, All treated (14-analyte M-DP panel; CNTO1275ARA2001, score at week 28, ustekinumab SC 90 mg or guselkumab SC 50 or 200 mg): −0.09 ± 0.43 log2 (fold/baseline)
- M-DP score mean difference ± SD, Good vs. No (14-analyte M-DP panel; [9]): −0.49 ± 0.41 log2 (fold/baseline)
- M-DP score mean ± SD, DAS28-CRP response group Good (14-analyte M-DP panel; [9]): −0.34 ± 0.33 log2 (fold/baseline)
- M-DP score mean ± SD, DAS28-CRP response group Moderate (14-analyte M-DP panel; [9]): −0.05 ± 0.23 log2 (fold/baseline)
- M-DP score mean ± SD, DAS28-CRP response group No (14-analyte M-DP panel; [9]): −0.15 ± 0.49 [13] log2 (fold/baseline)
- GMean M-DP scores, change (14-analyte M-DP panel): not decreased
- M-DP score mean ± SD, All treated ([1]; 4-analyte, CNTO1275ARA2001, score at week 4, ustekinumab SC 90 mg or guselkumab SC 50 or 200 mg): −0.05 ± 0.77 log2 (fold/baseline)
- M-DP score mean difference ± SD, Good vs. No [1, 10]: −0.81 ± 0.83 (0.0469) log2 (fold/baseline)
- M-DP score mean ± SD, DAS28-CRP response group Good [1, 10]: −0.49 ± 0.27 log2 (fold/baseline)
- M-DP score mean ± SD, DAS28-CRP response group Moderate [1, 10]: 0.06 ± 0.41 log2 (fold/baseline)
- M-DP score mean ± SD, DAS28-CRP response group No [1, 10]: 0.33 ± 0.98 log2 (fold/baseline)
- M-DP score mean ± SD, All treated ([1]; 4-analyte, CNTO1275ARA2001, score at week 28, ustekinumab SC 90 mg or guselkumab SC 50 or 200 mg): 0.04 ± 0.84 log2 (fold/baseline)
- M-DP score mean difference ± SD, Good vs. No [1, 11]: −0.94 ± 0.82 (0.0323) log2 (fold/baseline)
- M-DP score mean ± SD, DAS28-CRP response group Good [1, 11]: −0.53 ± 0.68 log2 (fold/baseline)
- M-DP score mean ± SD, DAS28-CRP response group Moderate [1, 11]: −0.04 ± 0.53 log2 (fold/baseline)
- M-DP score mean ± SD, DAS28-CRP response group No [1, 11]: 0.41 ± 0.94 log2 (fold/baseline)
- M-DP score effect size (decrease), EULAR DAS28-CRP good responders ([1]; week 4 M-DP scores): > 1.0 standard deviation
- clinical efficacy in the underlying clinical studies (RA patients): not clinically efficacious
